Earlier results on one compound are cited in patent US20260345571A1, “DELAMANID-CONTAINING SOLID DISPERSION” (priority 2022, published 2026).

In data set [1] the test system is Mycobacterium tuberculosis. The settings on record: PTL 1.
The next data set has as its system atypical mycobacteria. As to conditions: PTL 1.
For data set [2] the following is noted: melting point about 195 °C (decomposition).

In the case of `C[C@]1(COc2ccc(N3CCC(Oc4ccc(OC(F)(F)F)cc4)CC3)cc2)Cn2cc([N+](=O)[O-])nc2O1` [Delamanid, (2R)-2-methyl-6-nitro-2-[(4-{4-[4-(trifluoromethoxy)phenoxy]piperidin-1-yl}phenoxy)methyl]-2,3-dihydroimidazo[2,1-b]oxazole], the “Bactericidal action against Mycobacterium tuberculosis” value in data set [1] is on record as “excellent bactericidal action”. The “Bactericidal action against atypical mycobacteria” value in the data set on atypical mycobacteria is given as “excellent bactericidal action”. In addition, in data set [2], the Thermal stability result is “poor thermal stability”.
